Measurements taken from ChEMBL document CHEMBL3727348, “3-(aryl or heteroaryl) methyleneindolin-2-one derivatives as inhibitors of cancer stem cell pathway kinases for the treatment of cancer” (2014).
One block for each compound: values may come before it.

What was measured:
[1] = target: AMP-activated protein kinase, AMPK (Homo sapiens) (UniProt P54646+O43741+P54619+Q9UGJ0+Q9Y478+Q13131+Q9UGI9); assay: Inhibition of AMPK in human HeLa cells assessed as kinase phosphorylation level at 5 uM incubated for 6 hrs by SDS-PAGE based chemiluminescence assay; assay type: cell-based; set-up: scale not given: the % may be the effect or the level left
A549 [2] = assay: Cytotoxic activity against human A549 bulk cells incubated for 72 hrs by Cell-titer-Glo luminescence assay; assay type: functional, cell-based; details: A549, 72 h
[3] = target: T1, Ribosomal protein S6 kinase (Homo sapiens) (UniProt P51812+Q9UBS0+O75676+Q15349+O75582+P23443+Q9UK32+Q15418); assay: Inhibition of RPS6 kinase in human HeLa cells assessed as p-RPS6 Ser235/236 phosphorylation level at 5 uM incubated for 6 hrs by SDS-PAGE based chemiluminescence assay; assay type: cell-based; set-up: scale not given: the % may be the effect or the level left
[4] = target: T1, Ribosomal protein S6 kinase (Homo sapiens); assay: Inhibition of RPS6 kinase in human HeLa cells assessed as p-RPS6 Ser240/244 phosphorylation level at 5 uM incubated for 6 hrs by SDS-PAGE based chemiluminescence assay; assay type: cell-based; set-up: scale not given: the % may be the effect or the level left
ACHN [5] = assay: Cytotoxic activity against human ACHN bulk cells incubated for 72 hrs by Cell-titer-Glo luminescence assay; assay type: functional, cell-based
FaDu [6] = assay: Cytotoxic activity against human FADU bulk cells incubated for 72 hrs by Cell-titer-Glo luminescence assay; assay type: functional, cell-based
[7] = target: Serine/threonine-protein kinase RIO2 (Homo sapiens) (UniProt Q9BVS4); assay: Inhibition of N-terminal GST-fused full length human recombinant RIOK2 expressed in baculovirus Sf21 cells assessed as reduction in kinase auto-phosphorylation at 10 uM in presence of ATP incubated for 1 hr by ELISA method
A549 [8] = assay: Cytotoxic activity against human A549 cancer stem cells incubated for 72 hrs by Cell-titer-Glo luminescence assay; assay type: functional, cell-based; details: A549, 72 h
FaDu [9] = assay: Cytotoxic activity against human FADU cancer stem cells incubated for 72 hrs by Cell-titer-Glo luminescence assay; assay type: functional, cell-based
ACHN [10] = assay: Cytotoxic activity against human ACHN cancer stem cells incubated for 72 hrs by Cell-titer-Glo luminescence assay; assay type: functional, cell-based

Sequence of Serine/threonine-protein kinase RIO2 (Homo sapiens) (Q9BVS4 whole entry, looked up, the tested form may be a part): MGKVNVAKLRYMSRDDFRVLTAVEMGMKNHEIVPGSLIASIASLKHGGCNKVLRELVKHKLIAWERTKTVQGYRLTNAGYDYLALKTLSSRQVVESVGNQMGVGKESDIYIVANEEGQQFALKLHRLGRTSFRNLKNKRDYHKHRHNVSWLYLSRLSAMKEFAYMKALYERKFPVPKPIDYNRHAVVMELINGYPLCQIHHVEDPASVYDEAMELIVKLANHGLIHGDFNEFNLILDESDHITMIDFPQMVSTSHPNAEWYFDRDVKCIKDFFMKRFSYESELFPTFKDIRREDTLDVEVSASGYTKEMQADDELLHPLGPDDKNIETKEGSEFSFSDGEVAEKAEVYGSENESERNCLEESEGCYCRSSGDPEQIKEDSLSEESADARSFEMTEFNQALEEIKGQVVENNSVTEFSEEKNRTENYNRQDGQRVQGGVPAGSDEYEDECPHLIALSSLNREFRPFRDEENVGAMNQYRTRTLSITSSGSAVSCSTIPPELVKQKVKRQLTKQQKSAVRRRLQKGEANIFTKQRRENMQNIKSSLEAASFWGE

Compound: Cc1cc(C)c(/C=C2\C(=O)Nc3c2cccc3-c2cncnc2)[nH]1
Activity [1]: 113%
IC50 (A549 [2]): 25.2 µM
Activity [3]: 51%
Activity [4]: 50%
IC50 (ACHN [5]): 26.9 µM
IC50 (FaDu [6]): 28.1 µM

Compound: Cc1cc(C)c(/C=C2\C(=O)Nc3c2cccc3-c2cncc3ccccc23)[nH]1
Activity [1]: 108%
IC50 (A549 [2]): 19.7 µM
Activity [3]: 86%
Activity [4]: 83%
IC50 (ACHN [5]): 21 µM
IC50 (FaDu [6]): 25.8 µM

Compound: CCN(CC)CCNC(=O)c1c(C)[nH]c(/C=C2\C(=O)Nc3c2cccc3-c2ccncc2)c1C
Activity [1]: 56%
IC50 (A549 [2]): 6.85 µM
IC50 (A549 [8]): 12.6 µM
Activity [3]: 60%
IC50 (FaDu [9]): 4.41 µM
Activity [4]: 65%
IC50 (ACHN [5]): 6.39 µM
IC50 (ACHN [10]): 4.99 µM
IC50 (FaDu [6]): 6.74 µM

Compound: CCN(CC)CCNC(=O)c1c(C)[nH]c(/C=C2\C(=O)Nc3ccc(-c4ccc(-c5cccs5)s4)cc32)c1C
Activity [1]: 21%
Activity [3]: 5%
IC50 (FaDu [9]): 0.83 µM
Activity [4]: 41%
IC50 (FaDu [6]): 2.51 µM

Compound: Cc1[nH]c(/C=C2\C(=O)Nc3ccc(-c4nnc(-c5ccccc5)s4)cc32)c(C)c1C(=O)N1CCN(C)CC1
IC50 (A549 [2]): 48.9 µM
IC50 (FaDu [9]): 0.23 µM
inhibition [7]: 19%
IC50 (FaDu [6]): 14.1 µM

Compound: CCN(CC)CCNC(=O)c1c(C)[nH]c(/C=C2\C(=O)Nc3ccc(-c4ccc(-c5ccccc5)s4)cc32)c1C
IC50 (FaDu [9]): 1.2 µM
IC50 (ACHN [5]): 7.6 µM
inhibition [7]: 14%
IC50 (FaDu [6]): 4.74 µM

Compound: Cc1[nH]c(/C=C2\C(=O)Nc3ccc(-c4cnn(-c5ccccc5)c4)cc32)c(C)c1C(=O)NC1CNCC(c2ccccc2)C1 (centres undefined)
inhibition [7]: 69%

Compound: COc1ncc(-c2cccc3c2/C(=C/c2[nH]c(C)cc2C)C(=O)N3)cn1
Activity [1]: 145%
IC50 (A549 [2]): 21.1 µM
Activity [3]: 77%
Activity [4]: 75%
IC50 (ACHN [5]): 28.1 µM
IC50 (FaDu [6]): 35.3 µM

Compound: COc1ncc(-c2cccc3c2NC(=O)/C3=C\c2[nH]c(C)cc2C)cn1
Activity [1]: 96%
IC50 (A549 [2]): 17.7 µM
IC50 (A549 [8]): 34.7 µM
Activity [3]: 57%
Activity [4]: 54%
IC50 (ACHN [5]): 21.9 µM
IC50 (ACHN [10]): 17.5 µM
IC50 (FaDu [6]): 20.8 µM

Compound: Cc1[nH]c(/C=C2\C(=O)Nc3cc(-c4ccc(-c5ccccc5)s4)ccc32)c(C)c1C(=O)N1CCN(C)CC1
Activity [1]: 108%
Activity [3]: 36%
Activity [4]: 68%

Compound: Cc1cc(C)c(/C=C2\C(=O)Nc3c2cccc3-c2ccncc2)[nH]1
Activity [1]: 83%
IC50 (A549 [2]): 23.5 µM
Activity [3]: 68%
Activity [4]: 65%

Compound: COC(=O)c1c(C)[nH]c(/C=C2\C(=O)Nc3ccc(-c4csc(C5CCNCC5)n4)cc32)c1C
Activity [1]: 79%
IC50 (A549 [2]): 0.7 µM
IC50 (A549 [8]): 2.48 µM
Activity [3]: 70%
IC50 (FaDu [9]): 0.22 µM
Activity [4]: 83%
IC50 (ACHN [5]): 0.52 µM
IC50 (FaDu [6]): 0.69 µM

Compound: COc1ccc(-c2cccc3c2NC(=O)/C3=C\c2[nH]c(C)cc2C)cn1
Activity [1]: 91%
IC50 (A549 [2]): 24.4 µM
IC50 (A549 [8]): 43.4 µM
Activity [3]: 63%
Activity [4]: 59%
IC50 (ACHN [5]): 28.3 µM
IC50 (FaDu [6]): 28.4 µM

Compound: Cc1[nH]c(/C=C2\C(=O)Nc3cccc(-c4ccc(-c5ccccc5)cc4)c32)c(C)c1C(=O)N1CCN(C)CC1
Activity [1]: 105%
IC50 (A549 [2]): 21.5 µM
IC50 (A549 [8]): 5.76 µM
Activity [3]: 2%
IC50 (FaDu [9]): 1.21 µM
Activity [4]: 36%
IC50 (ACHN [5]): 14.9 µM
IC50 (FaDu [6]): 7.56 µM

Compound: CCN(CC)CCNC(=O)c1c(C)[nH]c(/C=C2\C(=O)Nc3cc(-c4oc(-c5ccccc5)nc4C)ccc32)c1C
Activity [1]: 151%
IC50 (A549 [2]): 7.49 µM
Activity [3]: 4%
IC50 (FaDu [9]): 8.09 µM
Activity [4]: 43%
IC50 (ACHN [5]): 2.97 µM
IC50 (ACHN [10]): 1.65 µM
IC50 (FaDu [6]): 3.55 µM

Compound: Cc1[nH]c(/C=C2\C(=O)Nc3ccc(-c4ccc(-c5ccccc5)s4)cc32)c(C)c1C(=O)N1CCN(C)CC1
IC50 (FaDu [9]): 1.16 µM
inhibition [7]: 65%
IC50 (FaDu [6]): 25.4 µM

Compound: CCN(CC)CCNC(=O)c1c(C)[nH]c(/C=C2\C(=O)Nc3cc(-c4cccc5ncccc45)ccc32)c1C
IC50 (A549 [2]): 2.88 µM
IC50 (A549 [8]): 8.61 µM
IC50 (FaDu [9]): 2.64 µM
IC50 (ACHN [5]): 2.66 µM
IC50 (ACHN [10]): 0.42 µM
IC50 (FaDu [6]): 4.83 µM

Compound: O=C1Nc2ccc(-c3csc(-c4ccccc4)n3)cc2/C1=C/c1ncc[nH]1
IC50 (A549 [2]): 17.2 µM
IC50 (A549 [8]): 2.31 µM
IC50 (FaDu [9]): 2.5 µM
IC50 (ACHN [5]): 1.44 µM
IC50 (ACHN [10]): 2.91 µM
IC50 (FaDu [6]): 7.57 µM

Further lines, with some results ahead:

inhibition [7]: 79%
Compound: Cc1[nH]c(/C=C2\C(=O)Nc3ccc(-c4cnn(-c5ccccc5)c4)cc32)c(C)c1C(=O)NCc1nc2ccccc2[nH]1

Activity [1]: 60%
Activity [3]: 71%
Activity [4]: 72%
Compound: CCN(CC)CCNC(=O)c1c(C)[nH]c(/C=C2\C(=O)Nc3c2cccc3-c2cncnc2)c1C
IC50 (A549 [2]): 21.5 µM
IC50 (A549 [8]): 27.5 µM
IC50 (FaDu [9]): 6.73 µM
IC50 (ACHN [5]): 16.4 µM
IC50 (ACHN [10]): 10.9 µM
IC50 (FaDu [6]): 36.3 µM

Activity [1]: 150%
Activity [3]: 5%
Activity [4]: 56%
Compound: CCN(CC)CCNC(=O)c1c(C)[nH]c(/C=C2\C(=O)Nc3cc(-c4ccc(-c5ccccc5)s4)ccc32)c1C
IC50 (FaDu [9]): 30.5 µM

Activity [1]: 27%
Activity [3]: 36%
Activity [4]: 35%
Compound: Cc1cc(C)c(/C=C2\C(=O)Nc3cccc(-c4ccc5cc[nH]c5c4)c32)[nH]1
IC50 (A549 [2]): 16.6 µM
IC50 (A549 [8]): 20.2 µM
IC50 (ACHN [5]): 20.4 µM
IC50 (ACHN [10]): 18.9 µM
IC50 (FaDu [6]): 16.4 µM

Activity [1]: 103%
Activity [3]: 2%
Activity [4]: 21%
Compound: Cc1nc(-c2ccccc2)oc1-c1ccc2c(c1)NC(=O)/C2=C\c1[nH]c(C)c(C(=O)N2CCN(C)CC2)c1C
IC50 (FaDu [9]): 1.6 µM
IC50 (ACHN [10]): 0.5 µM

Activity [1]: 118%
Activity [3]: 4%
Activity [4]: 44%
Compound: Cc1[nH]c(/C=C2\C(=O)Nc3cc(-c4csc(-c5ccccc5)n4)ccc32)c(C)c1C(=O)N1CCOCC1
IC50 (FaDu [9]): 41.9 µM

Activity [1]: 103%
Activity [3]: 74%
Activity [4]: 75%
Compound: Cc1cncc(-c2cccc3c2NC(=O)/C3=C\c2[nH]c(C)cc2C)c1
IC50 (A549 [2]): 21.2 µM
IC50 (A549 [8]): 32 µM
IC50 (ACHN [5]): 16 µM
IC50 (ACHN [10]): 32 µM
IC50 (FaDu [6]): 26.4 µM

Activity [1]: 105%
Activity [3]: 67%
Activity [4]: 67%
Compound: COc1ncccc1-c1cccc2c1/C(=C/c1[nH]c(C)cc1C)C(=O)N2
IC50 (FaDu [6]): 22.6 µM

Activity [1]: 12%
Activity [3]: 21%
Activity [4]: 64%
Compound: CCN(CC)CCNC(=O)c1c(C)[nH]c(/C=C2\C(=O)Nc3ccc(-c4nc(-c5ccccc5)cs4)cc32)c1C
IC50 (A549 [2]): 4.74 µM
IC50 (A549 [8]): 4.28 µM
IC50 (FaDu [9]): 0.27 µM
IC50 (ACHN [5]): 1.64 µM
IC50 (FaDu [6]): 1.18 µM

Activity [1]: 198%
Activity [3]: 44%
Activity [4]: 43%
Compound: Cc1cc(C)c(/C=C2\C(=O)Nc3cccc(-c4cncnc4)c32)[nH]1
IC50 (A549 [2]): 16.3 µM
IC50 (ACHN [5]): 16.8 µM
IC50 (FaDu [6]): 39.7 µM
